# Laboratory results published in patent US8022225B2, “Triazole derivative” (Taisho Pharmaceutical Co., Ltd, priority 2004, dated 2011).
# Columns and labels:
# [1] = biological target: T1, human Edg-1(S1P1) (Homo sapiens, UniProt P21453); assay: Cell system binding test: inhibition of [3H]-S1P binding to Edg-1(S1P1) gene transferred HEK-293 cells; conditions: [3H]-S1P 10 nM
# T1 construct: expressed in transfected cells; host or cells: HEK-293
# [2] = biological target: T1, human Edg-1(S1P1); assay: Membrane system binding test: inhibition of [33P]-S1P binding to the membrane fraction of Edg-1(S1P1) gene transferred HEK-293 cells; conditions: [33P]-S1P 0.1 nM
# Summary of the method: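 Compound tested at 10^−5 M final (0.1% DMSO) for blocking 0.1 nM [^33P]-S1P binding to S1P1-expressing HEK-293 membranes, 30 °C, 1 h. Radioactivity retained on filters was counted, and percent inhibition derived relative to vehicle binding, correcting for the background of non-transfected HEK-293 membranes.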
# [3] = 10 μM compound, read-out: Cell system binding test % inhibition (10 μM)
# [4] = 10 μM compound, membrane fraction of Edg-1(S1P1) gene transferred HEK-293 cells, read-out: Membrane system binding test % inhibition (10 μM)
# [5] = test compound 10^-5 M, 1 hour, read-out: Edg-1(S1P1) binding inhibition rate (cell system binding test)
# [6] = test compound 10^-5 M, 1 hour at 30° C., HEK-293 membrane fraction, read-out: Edg-1(S1P1) binding inhibition rate (membrane system binding test)
# T1 sequence (P21453 whole entry): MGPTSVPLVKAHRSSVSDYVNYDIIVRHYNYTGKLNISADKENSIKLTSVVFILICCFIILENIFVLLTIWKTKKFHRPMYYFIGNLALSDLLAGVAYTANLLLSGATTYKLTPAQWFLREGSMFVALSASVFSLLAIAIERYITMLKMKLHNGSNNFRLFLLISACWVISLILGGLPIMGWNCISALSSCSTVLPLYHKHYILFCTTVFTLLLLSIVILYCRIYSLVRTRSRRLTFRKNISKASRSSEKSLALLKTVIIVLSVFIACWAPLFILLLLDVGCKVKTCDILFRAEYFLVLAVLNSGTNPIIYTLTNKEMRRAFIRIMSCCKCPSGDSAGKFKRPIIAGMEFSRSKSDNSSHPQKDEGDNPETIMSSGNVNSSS
"inhibition at 10 µM [1, 3]","inhibition at 10 µM [2, 4]","inhibition at 10 µM [1, 5]","inhibition at 10 µM [2, 6]","Membrane system binding test % inhibition (10 μM) ([2]; 10 μM compound, membrane fraction of Edg-1(S1P1) gene transferred HEK-293 cells)",SMILES
99.9%,89.1%,,,,CCOc1nnc([C@@H](C)NS(=O)(=O)c2ccc(Br)c(Br)c2)n1CC [Compound 412]
84.4%,95%,,,,CCn1c(SCCOc2ccccc2)nnc1[C@@H](C)NS(=O)(=O)c1ccc(Cl)cc1 [Compound 23]
,,93.3%,83%,,CCn1c(OC(C)C)nnc1[C@@H](C)NS(=O)(=O)c1cccc(Cl)c1 [Compound 479]
,,47.5%,100%,,CCCCn1c(OC)nnc1[C@@H](C)NS(=O)(=O)c1ccc(Cl)cc1 [Compound 544]
90.5%,102%,,,,CCn1c(SCc2c(Cl)cccc2Cl)nnc1[C@@H](C)NS(=O)(=O)c1ccc(Cl)cc1 [Compound 43]
92.7%,99.4%,,,,CCN(CCSc1nnc([C@@H](C)NS(=O)(=O)c2ccc(Cl)cc2)n1CC)c1ccccc1 [Compound 75]
89.7%,104%,,,,CCn1c(SCc2cccc(N(C)C)c2)nnc1[C@@H](C)NS(=O)(=O)c1ccc(Cl)cc1 [Compound 71]
93%,97.9%,,,,CCn1c(SCCCc2ccncc2)nnc1[C@@H](C)NS(=O)(=O)c1ccc(Cl)cc1 [Compound 68]
92.3%,42.4%,,,,CCn1c(OC)nnc1[C@@H](C)NS(=O)(=O)c1ccc(OC)cc1 [Compound 226]
93.7%,99.7%,,,,CCn1c(SCc2ccccn2)nnc1[C@@H](C)NS(=O)(=O)c1ccc(Cl)cc1 [Compound 63]
92.5%,78.3%,,,,CCn1c(OCCC(C)C)nnc1[C@@H](C)NS(=O)(=O)c1ccc(Cl)cc1 [Compound 391]
,,91.6%,80.8%,,CCn1c(OC(C)C)nnc1[C@@H](C)NS(=O)(=O)c1cccc(C)c1 [Compound 470]
98.7%,88.6%,,,,CCn1c(OC)nnc1[C@@H](C)NS(=O)(=O)c1ccc(F)c(Cl)c1 [Compound 268]
97.8%,99.6%,,,,CCn1c(OC2CCCC2)nnc1[C@@H](C)NS(=O)(=O)c1ccc(Cl)cc1 [Compound 382]
95.8%,42.7%,,,,CCn1c(OC)nnc1[C@@H](C)NS(=O)(=O)c1ccc(C)cc1OC [Compound 264]
97.4%,93.3%,,,,CCn1c(OC)nnc1[C@@H](C)NS(=O)(=O)c1ccc(Br)cc1 [Compound 200]
82.7%,84.7%,,,,CCn1c(SCCCC(C)=O)nnc1[C@@H](C)NS(=O)(=O)c1ccc(Cl)cc1 [Compound 87]
98.3%,94.4%,,,,CCn1c(OC)nnc1[C@@H](C)NS(=O)(=O)c1ccc(C)c(Cl)c1 [Compound 215]
92.4%,45.6%,,,,CCn1c(OC)nnc1[C@@H](C)NS(=O)(=O)c1ccccc1C#N [Compound 212]
84%,,,,46.3%,C=CCSc1nnc([C@@H](CC)NS(=O)(=O)c2ccc(Cl)cc2)n1CCC [Compound 113]
96.2%,66.1%,,,,CCn1c(OC)nnc1[C@@H](C)NS(=O)(=O)c1cccc(C#N)c1 [Compound 213]
98.2%,69.5%,,,,CCn1c(OC)nnc1[C@@H](C)NS(=O)(=O)c1cc(C(F)(F)F)cc(C(F)(F)F)c1 [Compound 265]
91%,79.4%,,,,CCn1c(SCCCC(F)(F)F)nnc1[C@@H](C)NS(=O)(=O)c1ccc(Cl)cc1 [Compound 15]
94.8%,93.9%,,,,CCn1c(SC2CCOC2)nnc1[C@@H](C)NS(=O)(=O)c1ccc(Cl)cc1 (stereo partly shown) [Compound 49]
101%,93.9%,,,,CCOc1nnc([C@@H](C)NS(=O)(=O)c2ccc(Br)c(C(F)(F)F)c2)n1CC [Compound 437]

"inhibition at 10 µM [1, 3]","inhibition at 10 µM [2, 4]","inhibition at 10 µM [1, 5]","inhibition at 10 µM [2, 6]","Membrane system binding test % inhibition (10 μM) ([2]; 10 μM compound, membrane fraction of Edg-1(S1P1) gene transferred HEK-293 cells)",SMILES
90.1%,86.7%,,,,CCn1c(SC2CCCC2)nnc1[C@@H](C)NS(=O)(=O)c1ccc(Cl)cc1 [Compound 9]
,,102%,91.4%,,CCn1c(OCC(F)(F)F)nnc1[C@@H](C)NS(=O)(=O)c1ccc(F)c(Cl)c1 [Compound 488]
91%,107%,,,,CCCSc1nnc([C@@H](Cc2ccccc2)NS(=O)(=O)c2ccc(Cl)cc2)n1CC [Compound 139]
93%,54.9%,,,,CCn1c(OC)nnc1[C@@H](C)NS(=O)(=O)c1ccc(C(C)=O)cc1 [Compound 199]
96%,88.7%,,,,C=CCSc1nnc([C@@H](Cc2ccccc2)NS(=O)(=O)c2ccc(Cl)cc2)n1C(C)C [Compound 143]
,,101%,61.9%,,CCn1c(OCC(F)(F)F)nnc1[C@@H](C)NS(=O)(=O)c1cccc(OC)c1 [Compound 516]
93.7%,86.4%,,,,CCOc1nnc([C@@H](C)NS(=O)(=O)c2ccc(I)cc2)n1CC [Compound 435]
91.9%,87.7%,,,,CCn1c(SCC2CCCCCCC2)nnc1[C@@H](C)NS(=O)(=O)c1ccc(Cl)cc1 [Compound 35]
93%,100%,,,,C=CCSc1nnc(C(CC)NS(=O)(=O)c2ccc(Cl)cc2)n1CC (stereo not shown) [Compound 109]
97.9%,90.3%,,,,CCn1c(OCC(C)(C)C)nnc1[C@@H](C)NS(=O)(=O)c1ccc(Cl)cc1 [Compound 377]
90.4%,106%,,,,CCn1c(SCCc2c[nH]c3ccccc23)nnc1[C@@H](C)NS(=O)(=O)c1ccc(Cl)cc1 [Compound 85]
96.8%,87.7%,,,,CCn1c(OC)nnc1[C@@H](C)NS(=O)(=O)c1cccc(C(F)(F)F)c1 [Compound 245]
75.5%,105%,,,,CCCCCCCCCCCCCCCCOc1nnc([C@@H](C)NS(=O)(=O)c2ccc(Cl)cc2)n1CC [Compound 192]
97.7%,56.1%,,,,CCn1c(OC)nnc1[C@@H](C)NS(=O)(=O)c1cc(Br)ccc1Br [Compound 303]
103%,99.5%,,,,CCCOc1nnc([C@@H](Cc2ccccc2)NS(=O)(=O)c2ccc(Cl)cc2)n1CC [Compound 386]
105%,85.2%,,,,CCn1c(OCCCCCO)nnc1[C@@H](C)NS(=O)(=O)c1ccc(Cl)cc1 [Compound 380]
95.8%,43.5%,,,,CCCCc1ccc(S(=O)(=O)N[C@H](C)c2nnc(OC)n2CC)cc1 [Compound 207]
,,106%,70.9%,,CCn1c(OCC(F)(F)F)nnc1[C@@H](C)NS(=O)(=O)c1cc(Cl)c(Cl)s1 [Compound 510]
93%,99.6%,,,,CCn1c(SCc2cccc(Cl)c2)nnc1[C@@H](C)NS(=O)(=O)c1ccc(Cl)cc1 [Compound 44]
95.5%,68.1%,,,,CCn1c(OC)nnc1[C@@H](C)NS(=O)(=O)c1cc(C)cc(C)c1 [Compound 308]
92.9%,90.6%,,,,CCn1c(SCCc2ccccn2)nnc1[C@@H](C)NS(=O)(=O)c1ccc(Cl)cc1 [Compound 62]
88.6%,92%,,,,CCn1c(OCCCC(F)(F)F)nnc1[C@@H](C)NS(=O)(=O)c1ccc(Cl)cc1 [Compound 397]
,,108%,86.3%,,CCn1c(OCC(F)(F)F)nnc1[C@@H](C)NS(=O)(=O)c1ccc(Br)c(Br)c1 [Compound 502]
101%,99.2%,,,,CCOc1nnc([C@@H](C)NS(=O)(=O)c2ccc(Br)c(C)c2)n1CC [Compound 428]
99.6%,47.4%,,,,CCCCOc1ccc(S(=O)(=O)N[C@@H](C)c2nnc(OC)n2CC)cc1 [Compound 205]
